Test results: patent publication US20250195596A1, “COMPOSITION FOR PREVENTING OR TREATING RETINAL DISEASE, CONTAINING CENTELLA ASIATICA EXTRACT” (GENENCELL INC., priority 2018, published 2025)

System: ARPE-19 cells
Experiment: Cell protection from oxidative stress caused by A2E (MTT)
Format: cell-based
Details: ARPE-19, A2E accumulated 3 days, 30 μM, 48 hours, UV 5 minutes; in % (unit assumed)
Protocol: To determine the effect of inhibiting macular degeneration, the cell death inhibitory effect of A2E was measured. As test cells, ARPE-19 cells, which are retinal pigment epithelial cells, were used, and the medium, medium composition, and experimental conditions were the same as in Experimental Example 1. ARPE-19 cells were dispensed into a 24-well plate at a concentration of 3×10^4 cells/well and cultured for 24 hours, and then A2E was accumulated at a concentration of 3 µM for 3 days. In order to measure the effect of protecting cells from oxidative stress caused by A2E, the cells were treated with 25 μg/mL, 50 μg/mL, and 100 μg/mL of the 50% alcohol extract of Centella asiatica, and as a positive control, the cells were treated with 30 μM of lutein, which is known to have an inhibitory effect on macular degeneration, and cultured for 48 hours, and after 48 hours, the cells were irradiated with ultraviolet rays using a UV lamp for 5 minutes. The cell growth rate was measured at an absorbance of 570 nm using an MTT reagent, and the absorbance of each test solution was measured and compared with a control not treated with A2E.

## CC1=C[C@H](O)CC(C)(C)[C@H]1/C=C/C(C)=C/C=C/C(C)=C/C=C/C=C(C)/C=C/C=C(C)/C=C/C1=C(C)C[C@@H](O)CC1(C)C [Lutein, lutein]
  cell growth rate compared with a control not treated with A2E: 71.5 ± 8.22
